From patent US8124408B2, “Preparation of inactivated artificial antigen presenting cells and their use in cell therapies” (Janssen Pharmaceutica N.V., priority 2006, dated 2012) come the findings set out here.

Experiment [1] relates to baculovirus. The experiment in a line: baculovirus/Sf9 infectivity assay. The class given is cell-based. The note with it: for Virus Titer (10^−4) / Virus Titer (10^−5): UVADEX 5 μg/ml, virus added, Sf9 cells, triplicate. The procedure: A baculovirus/Sf9 infectivity assay was used to determine if psoralen-derivative/UVA treatment was sufficient to inactivate viruses associated with virus-infected insect cells. Sf9 insect cells were infected with BacPAK6 viral stock and incubated at room temperature for one hour (BacPAK6 baculovirus rapid titer kit; BD Biosciences Clontech). […] Five days after irradiation, culture supernatants were collected. From these, new viral stocks were prepared via serial dilutions of 10^−3, 10^−4 and 10^−5, respectively. These serially diluted stock dilutions were each used to infect a second set of fresh (i.e., not previously infected) Sf9 cell cultures. This second set of cultures was overlaid with methylcellulose and grown for approximately 48 hours. Culture supernatants of this second set of cultures were discarded and a mouse monoclonal anti-gp64 (baculovirus-specific) protein antibody (Invitrogen) was added. After an inbubation period and several washes to remove unbound anti-gp64 antibody, a goat-anti-mouse polyclonal antibody conjugated to horseradish peroxidase (i.e., secondary antibody obtained from Invitrogen) was added. Unbound secondary antibody was removed with several washes, and […] was added. The number of stained foci was counted and the virus titer (pfu/ml) was calculated according to the manufacturer's instructions.

The subject of experiment [2] is xenogenic HLA A2.1, B7-1, B7-2, and β2m transcripts. The experiment in a line: RT-PCR of xenogenic nucleic acid transcription in xAPC/clone D cocultures. The class given is cell-based, Drosophila. The settings on record: UVADEX 5 μg/ml and UVA 5, 15 or 30 minutes, 10 weeks coculture with clone D. The source says:
RT-PCR products were then visualized by agarose gel electrophoresis.
It was possible that xenogenic nucleic acid introduced into the xAPCs might have remained active, even though the xAPCs themselves were rendered nonproliferative. […] Each culture of xAPCs was washed and cocultured for 10 weeks with an indicator Drosophila cell line designated herein as clone D, which is a cell line that has not been modified by introduction of xenogenic nucleic acid. Reverse transcriptase (RT)-PCR reactions using primers specific for xenogenic HLA A2.1, B7-1, B7-2, and β2m transcripts were then performed on extracts of the cocultures.

The test system of a further experiment is Drosophila clone B xAPCs. The experiment in a line: xAPC proliferation, viable cell count by trypan blue staining. The class given is cell-based.
Excerpt: (§1) Viable (i.e., live) xAPCs were counted on day 1, day 5, day 9, day 14, and day 16 post-treatment by trypan blue staining of each culture.
as §1

Experiment [3] has as its system CD8^+ T cells. Briefly: K^b/OVA8 tetramer staining of mouse CD8+ T cells activated with xAPCs. The class given is cell-based, mice. The procedure: Lanes 1 and 2, percentage of stained CD8^+ T cells isolated form and activated from wild type mice (B6), as described in FIG. 8A (performed as a positive control).
IL-2 was added on day three and day five of the xAPC/naïve CD8^+ T cell coculture. The coculture was split on day seven of the coculture period, and on day nine the cultured CD8^+ T cells were collected. An OVA8/MHC tetramer (Beckman Coulter) preparation was prepared and 10 μl was mixed with 1×10^6 CD8^+ T cells/100 μl of FACS buffer (0.5% BSA, 0.2%, NaN3 in PBS). The K^b/OVA8 tetramers consisted of four MHC molecules bound to the OVA8 peptide, which was conjugated to a fluorescent protein. The mixture was incubated at room temperature for 30 minutes and washed in PBS, and then spun down at 400×g for 5 minutes. The cell pellet was resuspended in FACS buffer (500 μl) and immediately read on a FACScan flow cytometry machine at an excitation wavelength of 486 nm-580 nm and an emission wavelength of 586 nm-590 nm.

Experiment [4] relates to CD8^+ T cells. The source says: Human rIL-2 (20 units/ml) and rIL-7 (30 units/ml) were each added to the culture at day 5. The CD8^+ T cells were restimulated twice on the seventh and fifteenth days of the culture period with non-CD8 adherent cells in PBMC from the same donor in the presence of the MART-1 peptides. The expanded CD8^+ T cells were then stained with MART-1 tetramers (Beckman Coulter) consisting of four MHC molecules bound to the MART-1 peptide, which was conjugated to a fluorescent protein, and analyzed by FACS.

For another experiment, the system named is HLA-A2, B7-1, or ICAM-1. The settings on record: UVADEX 5 μg/ml, UVA 0, 5 or 15 minutes. As to the method: (§2) FACS analysis was carried out by independently using antibodies specific for human HLA, human B7.1, and ICAM-1, as indicated.
The xAPC cultures were washed and stained with monoclonal antibodies specific for HLA-A2, B7-1, or ICAM-1 and analyzed by FACS.

For experiment [5], the system named is lytic virus associated with Drosophila xAPCs. The experiment in a line: infectivity of xAPC viral stock on Drosophila clone D indicator cells. The class given is cell-based. As to the method: Thus, a xAPC culture containing approximately 6×10^8 Drosophila xAPCs (clone B) was collected, suspended in 0.6 ml Schneider's media on ice, and sonicated for 30 seconds. Cell debris was pelleted by centrifugation, and the supernatant collected and layered onto a cesium chloride (CsCl) cushion, which was at a density of 1.2 (20% w/w CsCl), at a ratio of three volumes of supernatant to one volume of CsCl. The supernatant-loaded CsCl cushion was then ultracentrifuged at 25,000 rpm for four hours. Viral fractions were collected and the fraction densities measured. Three milliliter fractions at a density of 1.0 to 1.2 were pooled and dialyzed against phosphate-buffered saline (PBS), generating a viral stock, and the viral stock stored at −80° C. until use. […] Independent cultures (1×10^6 cells/culture) of the Drosophila clone D indicator cell line were incubated at 28° C. with either the treated and untreated viral aliquots. After a three-day incubation period, the indicator cell cultures were harvested and stained with propidium iodide (PI) (1 μg/1×10^6 cells) at 4° C. for 10 minutes. The live and lytic cells were analyzed by FACS, with the results depicted in FIGS. 4A-4C.
After a three-day incubation period, the percentage of viable cells was quantified in each indicator cell line culture. […]

A further experiment has as its system HLA-A2, B7-1, and ICAM-1. The experiment in a line: FACS of exogenous molecules in xAPC clone B/clone D cocultures. The note with it: UVADEX/UVA 5 μg/ml, 10 weeks coculture with clone D. The class given is cell-based, Drosophila. The procedure:
as §2
For comparison, γ-radiation-treated xAPC clone B/clone D cocultures and untreated xAPC clone B/clone D cocultures were analyzed by FACS as well.
The cells from each culture were washed and then and cocultured with clone D indicator cells for 10 weeks. The cocultured cells were collected and aliquoted, and each aliquot was stained with one of HLA-A2, B7-1, and ICAM-1 fluorescein isothiocyanate (FITC)-conjugated monoclonal antibodies (mAbs), respectively. The stained cocultures were then analyzed by FACS.

Experiment [6] concerns baculovirus. Briefly: baculovirus titer by rapid microtiter assay after UVADEX/UVA treatment of infected Sf9 cells. The class given is cell-based. The note with it: UVADEX 5 μg/ml. The procedure: The treated cells were then cultured at 28° C. for 4 days. Cultured supernatant was collected and used to infect fresh, uninfected cultures of Sf9 cells seeded in 96-well plates. Baculovirus present in these Sf9 cultures was detected by a rapid microtiter assay (Invitrogen) using a gp64-specific antibody, and baculovirus titers were calculated.
In a similar experiment, Sf9 cells were infected with the titrated doses of baculovirus as described above. […] The treated cells were then cultured at 28° C. for four days. The culture supernatant was collected and used to infect a new culture of Sf9 cells seeded in 96-well plates. Baculovirus in the Sf9 cells was detected by a rapid microtiter assay (Invitrogen). The culture plates were overlaid with methylcellulose and cultured for 48 hrs. Baculovirus was detected by immunoassay with a gp64-specific antibody (Invitrogen). The number of foci in each well was counted and the virus titer (pfu/ml) of the supernatant of the infected cells was calculated according to the manufacturer's instructions.

Experiment [7] concerns CD8^+ T cells. Briefly: APC function of glutaraldehyde-fixed Drosophila xAPCs. The class given is cell-based. The note with it: xAPCs fixed with 0.3% glutaraldehyde. The source says:
Inactivation of Drosophila cells was initially attempted with glutaraldehyde fixation in the absence of preservative.

Setting [8] is: UVA irradiation time 10 minutes.

Structures are written as SMILES. Read-outs that look alike come from different tables or passages of the source.

For `COc1c2occc2cc2ccc(=O)oc12` [UVADEX, 9-methoxy-7H-furo[3,2-g]-1-benzopyran-7-one], the “infectious virus in viral stock obtained in the supernatant” value in the experiment with baculovirus [1] (5 mcg/ml 8-MOPs, UVA 320-380 nm for 5 minutes, infected Sf9 cells) was “does not contain infectious virus”. For the same compound, the “Virus Titer (10^−4)” value with baculovirus [1] (UVA irradiation time 5 minutes) and in the experiment with baculovirus [1] (setting [8]) was 0 throughout. In addition, the “Virus Titer (10^−5)” value with baculovirus [1] (UVA irradiation time 5 minutes) and in the experiment with baculovirus [1] (setting [8]) was 0 each time. The “xenogenic HLA A2.1, B7-1, B7-2, and β2m transcripts” value in experiment [2] was “absence of detectable levels”. In addition, the “inactivation of Drosophila cells” value with Drosophila clone B xAPCs (8-MOPs plus 1 Joule/cm^2 for 2 minutes) is reported as “sufficient to inactivate Drosophila cells”. In addition, the cytotoxicity at 5 µg/mL in the experiment with Drosophila clone B xAPCs (Drosophila melanogaster, light or radiation study, read-out: inhibition of viability of xAPC cultures) is around 50%. For the same compound, the “viable xAPCs detected” value in the experiment on Drosophila clone B xAPCs (two weeks after UVADEX/UVA treatment, any treated culture) is “almost no viable cells were detected”. For the same compound, the results for the “percentage of CD8^+ T cells stained with K^b/OVA tetramer versus non-treated xAPCs” value in the experiment with CD8^+ T cells [3] (MyD88 knock-out (MyD88^−/−) mice) and with CD8^+ T cells [3] (wild type (C57BL/6 (B6)) mice) were “no increase” and “higher percentage”, respectively. Besides, the “Percent p/MHC tetramers of CD8^+ T cells (% Tetr + CD8^+)” value with CD8^+ T cells [4] (Donor 1, MART-1 tetramer) is reported as 0.95%; in the experiment with CD8^+ T cells [4] (Donor 2, MART-1 tetramer), 11.55%; in the experiment with CD8^+ T cells [4] (Donor 3, MART-1 tetramer) it was 15.07%; with CD8^+ T cells [4] (Donor 4, MART-1 tetramer), 43.33%. The “surface expression level of the three exogenous molecules” value in the experiment with HLA-A2, B7-1, or ICAM-1 is on record as “essentially the same”. Moreover, the “infection and lysis of indicator cell culture by serial dilutions of viral stock” value in experiment [5] (5 μg/ml for 10 minutes, dilutions 10^−1 to 10^−9, three-day incubation) was “almost completely incapable of infecting and lysing the indicator cell culture at all but the lowest dilution tested”. In addition, the “indicator cell infection or lysis by microscopy” value in [5] (viral stock treated 5 μg/ml for 10 minutes, three-day incubation) is reported as “failed to result in any observable indicator cell infection or lysis”. Moreover, the “expression of HLA-A2, B7-1, and ICAM-1 in cocultures” value in the experiment on HLA-A2, B7-1, and ICAM-1 is “undetectable levels”. In addition, the “baculovirus titer of culture supernatant” value with baculovirus [6] (ten-minute UVA) and in the experiment on baculovirus [6] (twenty-minute UVA) was “no detectible baculovirus titer” each time.
For `O=CCCCC=O` [glutaraldehyde], in the experiment with CD8^+ T cells [7], the “CD8^+ T cell activation, less than unfixed cells” value came to 2 fold; the “antigen-specific proliferation of CD8^+ T cells, less than unfixed cells” value is given as 2.5- to 6 fold; the “generation of CD8^+ T cells capable of lysing target cells” value is on record as “to a lesser degree than unfixed cells”.
